≈ marks a conversion by molar mass, not a printed value.
Assays:
Assay in all cases: Antibiotic susceptibility, broth microdilution
Format in all cases: cell-based
[1] = test system: Enterococcus faecalis (Van B, ATCC 51299); settings: growth observed at 20 h, unit assumed
Procedure: (§1) Antibiotic susceptibilities were determined using the Clinical and Laboratory Standards Institute broth microdilution method (63). Briefly, antibiotics were prepared as 2-fold dilutions in 96-well plates containing cation-adjusted Mueller-Hinton broth (S. aureus strains) or brain-heart infusion broth (Enterococcus strains). Stock solutions of antibiotics were made in dimethyl sulfoxide (DMSO). […]

[2] = test system: Enterococcus faecalis (VanA, BM4166); settings: growth observed at 20 h, unit assumed
Procedure: as §1

[3] = test system: Enterococcus faecium (Van A, ATCC BAA-2317); settings: growth observed at 20 h; unit assumed
Procedure: as §1

[4] = test system: Staphylococcus aureus (ATCC 25923); settings: growth observed at 20 h; unit assumed
Procedure: as §1

[5] = test system: Staphylococcus aureus (methicillin resistant, ATCC 43300); settings: MRSA; growth observed at 20 h; unit assumed
Procedure: as §1

**Q.** What does the source list for `CN[C@H](CC(C)C)C(=O)N[C@H]1C(=O)N[C@@H](CC(N)=O)C(=O)N[C@H]2C(=O)N[C@H]3C(=O)N[C@H](C(=O)N[C@H](C(=O)O)c4cc(O)cc(O)c4-c4cc3ccc4O)[C@H](O)c3ccc(c(Cl)c3)Oc3cc2cc(c3O)Oc2ccc(cc2Cl)[C@H]1O` [vancomycin aglycon]?
**A.** MIC [1]: 32 mg/L (≈ 28 µM); MIC [2]: > 64 mg/L; MIC [3]: > 64 mg/L; MIC [4]: 1 mg/L (≈ 0.874 µM); MIC [5]: 1 mg/L (≈ 0.874 µM)

**Q.** Which MIC [1] does the source give for `CN[C@H](CC(C)C)C(=O)N[C@H]1C(=O)N[C@@H](CC(N)=O)C(=O)N[C@H]2C(=O)N[C@H]3C(=O)N[C@H](C(=O)N[C@H](C(=O)O)c4cc(O)cc(O)c4-c4cc3ccc4O)[C@H](O)c3ccc(c(Cl)c3)Oc3cc2cc(c3O[C@@H]2O[C@H](CO)[C@@H](O)[C@H](O)[C@H]2O[C@H]2C[C@](C)(N)[C@H](O)[C@H](C)O2)Oc2ccc(cc2Cl)[C@H]1O` [vancomycin] here?
**A.** 16 mg/L (≈ 11 µM)

**Q.** And the MIC [2]?
**A.** > 64 mg/L

**Q.** And the MIC [3]?
**A.** > 64 mg/L

**Q.** And the MIC [4]?
**A.** 0.5 mg/L (≈ 0.345 µM)

**Q.** What about the MIC [5] of the same compound?
**A.** 0.5 mg/L (≈ 0.345 µM)

**Q.** What does the source list for `CN[C@@H](CC(C)C)C(=O)N[C@H]1C(=O)N[C@@H](CC(N)=O)C(=O)N[C@H]2CN[C@H]3C(=O)N[C@H](C(=O)N[C@@H](C(=O)O)c4cc(OC)cc(OC)c4-c4cc3ccc4OC)[C@H](O)c3ccc(c(Cl)c3)Oc3cc2cc(c3OC)Oc2ccc(cc2Cl)[C@H]1O` (atropisomer, axis not shown) [Compound 43]?
**A.** MIC [1]: 8 mg/L (≈ 6.74 µM); MIC [2]: > 64 mg/L; MIC [3]: > 64 mg/L; MIC [4]: 2 mg/L (≈ 1.69 µM); MIC [5]: 2 mg/L (≈ 1.69 µM)
